SMILES strings stand for the structures.

The target of the assay is T1, Y2 receptors (Homo sapiens, UniProt P49146).
T1 construct: endogenous in cells; host or cells: KAN-Ts cells (membranes)
T1 sequence (P49146 1-381): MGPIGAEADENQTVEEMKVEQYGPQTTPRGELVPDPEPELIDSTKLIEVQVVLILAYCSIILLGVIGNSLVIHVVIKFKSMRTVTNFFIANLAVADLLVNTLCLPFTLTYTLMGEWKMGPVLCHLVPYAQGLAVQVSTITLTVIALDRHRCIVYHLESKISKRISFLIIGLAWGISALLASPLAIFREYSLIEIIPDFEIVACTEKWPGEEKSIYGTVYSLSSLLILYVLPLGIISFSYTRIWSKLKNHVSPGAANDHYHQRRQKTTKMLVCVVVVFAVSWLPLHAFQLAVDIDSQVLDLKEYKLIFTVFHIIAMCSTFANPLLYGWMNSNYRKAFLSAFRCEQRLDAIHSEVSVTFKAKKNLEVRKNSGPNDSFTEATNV
Kind of assay: Radioligand binding assay ([125I]PYY, KAN-Ts cell membranes). Conditions: Table 1, [125I]PYY 80 pM, average of results, read-out: IC50. How it is done:
Radioligand Binding Assay
KAN-Ts endogenously expressing Y2 receptors were used for the radioligand binding assay. Cells were grown to confluence on 150 cm^2 tissue culture plates, washed with phosphate-buffered saline (PBS), and scraped into 50 mL tubes. After centrifugation, the supernatant was aspirated, and the pellets frozen and stored at −80° C. Thawed pellets were homogenized with a polytron tissue grinder for 15 sec in 20 mM Tris-HCl, 5 mM EDTA. The homogenate was centrifuged at 800×g for 5 min and the collected supernatant was recentrifuged at 25000×g for 25 min. The resulting pellet was resuspended in binding buffer (20 mM HEPES, 120 mM NaCl, 0.22 mM KH2PO4, 1.3 mM CaCl2, 0.8 mM MgSO4). Membranes were incubated with [^125I]PYY (80 pM) in the presence or absence of test compound for 1 h at rt. The reaction was stopped by filtration through GF/C filter plates pre-soaked in 0.3% polyethylenimine and subsequently washed with Tris 50 mM, 5 mM EDTA buffer. Plates were dried for 1 h in a 55° C. oven, scintillation fluid was added and the radioactivity was counted in a Packard TopCount. Specific binding to the NPY receptor subtypes was determined by radioactivity that was bound in the presence of […]. Each binding experiment was repeated three to eight times, each in duplicate. IC50 values (i.e. concentration of unlabelled peptide or antagonist required to compete for 50% of specific binding to the radioligand) were calculated using the GraphPad Prism software (GraphPad Software Inc., San Diego Calif.) with a fit to a sigmoidal dose response curve. Data for compounds tested are presented in Tables 1 and 2 as an average of results obtained.
In the case of `COC(=O)C(c1ccccc1)N1CCN(c2ccc(NC(=O)c3ccccc3Cl)cc2)CC1` (stereo not drawn) [Example 53, {4-[4-(2-Chloro-benzoylamino)-phenyl]-piperazin-1-yl}-phenyl-acetic acid methyl ester], the half-maximal inhibitory concentration (IC50) is 12.6 µM. Under `COC(=O)C(c1ccccc1)N1CCN(c2ccc(NC(=O)c3ccccc3OC)cc2)CC1` (stereo not drawn) [Example 56, {4-[4-(2-Methoxy-benzoylamino)-phenyl]-piperazin-1-yl}-phenyl-acetic acid methyl ester] stands 4 µM; under `CNc1ccccc1C(=O)Nc1ccc(N2CCN(C(C(=O)OC)c3ccccc3)CC2)cc1` (stereo not drawn) [Example 58, {4-[4-(2-Methylamino-benzoylamino)-phenyl]-piperazin-1-yl}-phenyl-acetic acid methyl ester], 3 µM. Under `COC(=O)C(c1ccccc1)N1CCN(c2ccc(NC(=O)C3CCCC3)cc2)CC1` (stereo not drawn) [Example 59, {4-[4-(Cyclopentanecarbonyl-amino)-phenyl]-piperazin-1-yl}-phenyl-acetic acid methyl ester] stands 13.1 µM. Under `CCC(CC)C(=O)Nc1ccc(N2CCN(C(C(=O)OC)c3ccccc3)CC2)cc1` (stereo not drawn) [Example 60, {4-[4-(2-Ethyl-butyrylamino)-phenyl]-piperazin-1-yl}-phenyl-acetic acid methyl ester] stands 0.527 µM. Take `COC(=O)C(c1ccccc1)N1CCN(c2ccc(NC(=O)c3ccccc3)cc2F)CC1` (stereo not drawn) [Example 61, [4-(4-Benzoylamino-2-fluoro-phenyl)-piperazin-1-yl]-phenyl-acetic acid methyl ester]: the half-inhibitory concentration (IC50) was determined as 2.5 µM. Under `COC(=O)C(c1ccccc1)N1CCN(c2ccc(NC(=O)c3ccccc3C)cc2F)CC1` (stereo not drawn) [Example 62, {4-[2-Fluoro-4-(2-methyl-benzoylamino)-phenyl]-piperazin-1-yl}-phenyl-acetic acid methyl ester] stands 1.3 µM; under `CCc1ccccc1C(=O)Nc1ccc(N2CCN(C(C(=O)OC)c3ccccc3)CC2)c(F)c1` (stereo not drawn) [Example 63, {4-[4-(2-Ethyl-benzoylamino)-2-fluoro-phenyl]-piperazin-1-yl}-phenyl-acetic acid methyl ester], 0.6 µM. Regarding `COC(=O)C(c1ccccc1)N1CCN(c2ccc(NC(=O)c3ccccc3C(C)C)cc2F)CC1` (stereo not drawn) [Example 64, {4-[2-Fluoro-4-(2-isopropyl-benzoylamino)-phenyl]-piperazin-1-yl}-phenyl-acetic acid methyl ester], the IC50 turned out to be 1 µM.

In the case of `COC(=O)C(c1ccccc1)N1CCN(c2ccc(NC(=O)c3ccccc3OC)cc2F)CC1` (stereo not drawn) [Example 65, {4-[2-Fluoro-4-(2-methoxy-benzoylamino)-phenyl]-piperazin-1-yl}-phenyl-acetic acid methyl ester], the half-inhibitory concentration (IC50) was 1.3 µM. Under `CNc1ccccc1C(=O)Nc1ccc(N2CCN(C(C(=O)OC)c3ccccc3)CC2)c(F)c1` (stereo not drawn) [Example 68, {4-[2-Fluoro-4-(2-methylamino-benzoylamino)-phenyl]-piperazin-1-yl}-phenyl-acetic acid methyl ester] stands 1.4 µM; under `CCc1cccc(C(=O)Nc2ccc(N3CCN(C(C(=O)OC)c4ccccc4)CC3)cc2)c1` (stereo not drawn) [Example 69, {4-[4-(3-Ethyl-benzoylamino)-phenyl]-piperazin-1-yl}-phenyl-acetic acid methyl ester], 25 µM.

For `COC(=O)C(c1ccccc1)N1CCN(c2ccc(NC(=O)c3cccc(C)c3)cc2)CC1` (stereo not drawn) [Example 72, {4-[4-(3-Methyl-benzoylamino)-phenyl]-piperazin-1-yl}-phenyl-acetic acid methyl ester], the 50% inhibitory concentration (IC50) came to 6 µM. Under `COC(=O)C(c1ccccc1)N1CCN(c2ccc(NC(=O)CCC(C)C)cc2F)CC1` (stereo not drawn) [Example 78, {4-[2-Fluoro-4-(4-methyl-pentanoylamino)-phenyl]-piperazin-1-yl}-phenyl-acetic acid methyl ester] stands 0.23 µM. Under `CCCCC(CC)C(=O)Nc1ccc(N2CCN(C(C(=O)OC)c3ccccc3)CC2)c(F)c1` (stereo not drawn) [Example 79, {4-[4-(2-Ethyl-hexanoylamino)-2-fluoro-phenyl]-piperazin-1-yl}-phenyl-acetic acid methyl ester] stands 0.1 µM. Under `CCCCC(CC)C(=O)Nc1ccc(N2CCN(C(C(=O)OC)c3ccccc3)CC2)cc1` (stereo not drawn) [Example 82, {4-[4-(2-Ethyl-hexanoylamino)-phenyl]-piperazin-1-yl}-phenyl-acetic acid methyl ester] stands 0.4 µM.

For `CCCCCC(=O)Nc1ccc(N2CCN(C(C(=O)OC)c3ccccc3)CC2)cc1` (stereo not drawn) [Example 83, [4-(4-Hexanoylamino-phenyl)-piperazin-1-yl]-phenyl-acetic acid methyl ester], the IC50 amounted to 3.6 µM. Under `COC(=O)C(c1ccccc1)N1CCN(c2ccc(NC(=O)CCc3ccccc3)cc2)CC1` (stereo not drawn) [Example 84, Phenyl-{4-[4-(3-phenyl-propionylamino)-phenyl]-piperazin-1-yl}-acetic acid methyl ester] stands 3.35 µM; under `CCCC(C)C(=O)Nc1ccc(N2CCN(C(C(=O)OC)c3ccccc3)CC2)cc1` (stereo not drawn) [Example 85, {4-[4-(2-Methyl-pentanoylamino)-phenyl]-piperazin-1-yl}-phenyl-acetic acid methyl ester], 1.3 µM; under `CCCCC(=O)Nc1ccc(N2CCN(C(C(=O)OC)c3ccccc3)CC2)cc1` (stereo not drawn) [Example 86, [4-(4-Pentanoylamino-phenyl)-piperazin-1-yl]-phenyl-acetic acid methyl ester], 4.8 µM.

As to `COC(=O)C(c1ccccc1)N1CCN(c2ccc(NC(=O)CCC(C)C)cc2)CC1` (stereo not drawn) [Example 87, {4-[4-(4-Methyl-pentanoylamino)-phenyl]-piperazin-1-yl}-phenyl-acetic acid methyl ester], the IC50 was determined as 1.7 µM. Under `CCNC(=O)C(c1ccccc1)N1CCN(c2ccc(NC(=O)CCC(C)C)cc2F)CC1` (stereo not drawn) [Example 88, 4-Methyl-pentanoic acid {4-[4-(ethylcarbamoyl-phenyl-methyl)-piperazin-1-yl]-3-fluoro-phenyl}-amide] stands 1 µM.

For the molecule `CCCCC(CC)C(=O)Nc1ccc(N2CCN(C(C(=O)NCC)c3ccccc3)CC2)c(F)c1` (stereo not drawn) [Example 89, 2-Ethyl-hexanoic acid {4-[4-(ethylcarbamoyl-phenyl-methyl)-piperazin-1-yl]-3-fluoro-phenyl}-amide], the IC50 is 1.03 µM. Under `CCNC(=O)C(c1ccccc1)N1CCN(c2ccc(NC(=O)CCc3ccccc3)cc2F)CC1` (stereo not drawn) [Example 90, N-{4-[4-(Ethylcarbamoyl-phenyl-methyl)-piperazin-1-yl]-3-fluoro-phenyl}-3-phenyl-propionamide] stands 9.7 µM. Under `CCNC(=O)C(c1ccccc1)N1CCN(c2ccc(NC(=O)CCN(CC)CC)cc2F)CC1` (stereo not drawn) [Example 91, 3-Diethylamino-N-{4-[4-(ethylcarbamoyl-phenyl-methyl)-piperazin-1-yl]-3-fluoro-phenyl}-propionamide] stands 10 µM; under `CCNC(=O)C(c1ccccc1)N1CCN(c2ccc(NC(=O)Cc3ccncc3)cc2F)CC1` (stereo not drawn) [Example 92, N-Ethyl-2-{4-[2-fluoro-4-(2-pyridin-4-yl-acetylamino)-phenyl]-piperazin-1-yl}-2-phenyl-acetamide], 5.1 µM. Under `CCNC(=O)C(c1ccccc1)N1CCN(c2ccc(NC(=O)C(CC3CCCN3)C(F)(F)F)cc2F)CC1` (stereo not drawn) [Example 93, N-{4-[4-(Ethylcarbamoyl-phenyl-methyl)-piperazin-1-yl]-3-fluoro-phenyl}-3,3,3-trifluoro-2-pyrrolidin-2-ylmethyl-propionamide] stands 5 µM; under `CCNC(=O)C(c1ccccc1)N1CCN(c2ccc(NC(=O)C(CC3CCCCN3)C(F)(F)F)cc2F)CC1` (stereo not drawn) [Example 94, N-{4-[4-(Ethylcarbamoyl-phenyl-methyl)-piperazin-1-yl]-3-fluoro-phenyl}-3,3,3-trifluoro-2-piperidin-2-ylmethyl-propionamide], 10 µM; under `CCNC(=O)C(c1ccccc1)N1CCN(c2ccc(NC(=O)CN3CCN(C(C)C)CC3)cc2F)CC1` (stereo not drawn) [Example 95, N-Ethyl-2-(4-{2-fluoro-4-[2-(4-isopropyl-piperazin-1-yl)-acetylamino]-phenyl}-piperazin-1-yl)-2-phenyl-acetamide], 10 µM. As for `CCNC(=O)C(c1ccccc1)N1CCN(c2ccc(NC(=O)C3CCN3C3CCCCC3)cc2F)CC1` (stereo not drawn) [Example 96, 1-Cyclohexyl-azetidine-2-carboxylic acid {4-[4-(ethylcarbamoyl-phenyl-methyl)-piperazin-1-yl]-3-fluoro-phenyl}-amide], the IC50 came to 9 µM.

By IC50 is commonly meant the concentration at which inhibition is half-maximal.

The values are drawn from US8183239B2, “Substituted piperazines and piperidines as modulators of the neuropeptide Y2 receptor” (Janssen Pharmaceutica NV, priority 2005, dated 2012).
